The molecules below were run against T1, AM2 receptor-expressing cells (1321N1 cells transfected with CALCRL+RAMP3) (Homo sapiens, UniProt O60896+Q16602) (assay: AM2 receptor inhibition, LANCE cAMP agonist-antagonist competition assay (AM2 D2 protocol)). Settings: inhibition of AM induced cAMP in 1321N1 cells expressing CALCRL+RAMP3; read-out: AM2 D2 protocol: pIC50 (converted).
T1 construct: host or cells: 1321N1 cells
Format: cell-based
Experimental: Compounds were assessed for their ability to inhibit ligand-induced elevations of cAMP, using the Perkin Elmer LANCE cAMP assay using commercially-available cells expressing a specific receptor of interest using the following general procedure:
Compounds were prepared in dimethyl sulfoxide (DMSO—99.9% pure) (Sigma Aldrich, Cat #: D4540) added to powder stocks to produce a 20 mM solution (100% DMSO) that was sonicated at 37° C. for 10 minutes to fully dissolve the compounds. The 20 mM stocks were diluted further in DMSO to produce a 2 mM solution that was sonicated at 37° C. for 10 minutes. 2 mM stocks were dissolved in assay/stimulation buffer to produce a 400 μM solution that was sonicated at 37° C. for 10 minutes for all cAMP assays. All stocks were stored at −20° C. Then serial dilution (Dilution factor: 10) was performed to achieve the desire experimental concentrations.
Competition assays were performed according to the manufactures instructions using LANCE® TR-FRET cAMP assay kit (Perkin Elmer, Cat #: AD0264). Serial dilutions (3 μl/well) of the molecules were plated in a 384-well OptiPlate (Perkin Elmer, Cat #: 6007299) in duplicates. Appropriate controls (100% stimulation: Forskolin and 0% stimulation: Vehicle control) (6 μl/well) were included in each plate for data normalization. Following the compound addition, 6 μl of G-protein coupled receptor overexpressing cells/Alexa Fluor antibody solution (1:100 dilution) was added in each well at a desired density of 2500 cells/well. The overexpressing cell lines were purchased from DiscoveRx, Birmingham, UK. After spinning the plate at 1000 rpm for 1 minute and vortexing briefly, the cells were pre-incubated with the compounds for 30 minutes at room temperature (covered). Then 3 μl of the equivalent peptide ligand (EC50 dose) was added to all the wells except vehicle and forskolin controls. The plate were then spun down at 1000 rpm for 1 minute and once finished they were vortexed briefly and covered. Cells were stimulated in the presence of the ligands for 15 minutes at room temperature. After stimulation 12 μl of detection mix (Europium-Chelate streptavidin/biotinylated cAMP tracer solution) was added to all wells and incubated for 60 minutes at room temperature. The plate was then read on the Enspire multimode Plate reader (Perkin Elmer), at; 320/340 nm excitation and 615/665 nm emission was recorded.
Assay/Stimulation Buffer (30 mL)—pH 7.4 • 28 mL Hank's Balanced salt solution (+MgCl2, +CaCl2))—(Thermo Fisher Cat #:14170112) • 150 μl HEPES (1M)—(Thermo Fisher Cat #:15630080) • 400 μl Stabilizer (DTPA) Purified BSA (7.5%)—(Perkin Elmer, Cat #: CR84-100) • 60 μl IBMX (250 mM)—(Sigma Aldrich, Cat #: 15879)
The ability of a compound to inhibit the AM induced cAMP activation in AM2 receptor-expressing cells (1321N1 cells transfected with CALCRL+RAMP3, sourced from DiscoverX catalogue number 95-0169C6) was assessed using the protocol above.

T1 sequence (Q16602 23-461): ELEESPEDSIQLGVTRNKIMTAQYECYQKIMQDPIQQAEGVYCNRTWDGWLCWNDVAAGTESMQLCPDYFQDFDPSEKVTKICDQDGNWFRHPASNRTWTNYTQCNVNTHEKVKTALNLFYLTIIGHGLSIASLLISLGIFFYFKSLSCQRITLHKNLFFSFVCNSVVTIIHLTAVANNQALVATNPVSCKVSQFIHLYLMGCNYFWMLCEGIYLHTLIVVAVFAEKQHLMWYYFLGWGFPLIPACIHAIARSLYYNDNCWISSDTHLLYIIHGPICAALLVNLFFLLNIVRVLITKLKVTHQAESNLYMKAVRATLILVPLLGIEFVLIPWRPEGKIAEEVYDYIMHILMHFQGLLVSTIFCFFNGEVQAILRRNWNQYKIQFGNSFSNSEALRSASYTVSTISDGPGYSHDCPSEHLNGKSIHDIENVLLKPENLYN
T1 sequence (O60896 24-148): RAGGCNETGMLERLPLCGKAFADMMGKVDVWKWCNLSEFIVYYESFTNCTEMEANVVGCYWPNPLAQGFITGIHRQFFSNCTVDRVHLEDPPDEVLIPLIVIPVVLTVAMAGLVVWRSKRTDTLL

**Q.** `O=C(CN(C(=O)C1CCCC1)[C@H]1CCCNC1)Nc1ccc2c(c1)C[C@@]1(C2)C(=O)Nc2ncccc21` [Example 5, N-(2-Oxo-2-(((R)-2′-oxo-1,1′,2′,3-tetrahydrospiro[indene-2,3′-pyrrolo[2,3-b]pyridin]-5-yl)amino)ethyl)-N—((S)-piperidin-3-yl)cyclopentanecarboxamide] was tested. Which IC50 did it give?
**A.** 0.17 µM

**Q.** For `CC(C)(C)C(=O)N(CC(=O)Nc1ccc2c(c1)CC1(C2)C(=O)Nc2ncccc21)C1CCCNCC1` (centres unmarked) [Example 26, N-(Azepan-4-yl)-N-(2-oxo-2-((2′-oxo-1,1′,2′,3-tetrahydrospiro[indene-2,3′-pyrrolo[2,3-b]pyridin]-5-yl)amino)ethyl)pivalamide], which IC50 is on record?
**A.** 0.479 µM

**Q.** `CC1(C(=O)N(CC(=O)Nc2ccc3c(c2)C[C@@]2(C3)C(=O)Nc3ncccc32)[C@H]2CCCNC2)CCN(C(=O)CN2CCNCC2)CC1` [Example 18, 4-Methyl-N-(2-oxo-2-(((R)-2′-oxo-1,1′,2′,3-tetrahydrospiro[indene-2,3′-pyrrolo[2,3-b]pyridin]-5-yl)amino)ethyl)-1-(2-(piperazin-1-yl)acetyl)-N—((S)-piperidin-3-yl)piperidine-4-carboxamide] was tested. Which IC50 did it give?
**A.** 0.0676 µM

**Q.** For `C[C@H]1CC[C@H](N(CC(=O)Nc2ccc3c(c2)C[C@@]2(C3)C(=O)Nc3ncccc32)C(=O)C(C)(C)C)CN1` (relative stereo) [Example 28, N-((3S*,6S*)-6-Methylpiperidin-3-yl)-N-(2-oxo-2-(((R)-2′-oxo-1,1′,2′,3-tetrahydrospiro[indene-3′-pyrrolo[2,3-b]pyridin]-5-yl)amino)ethyl)pivalamide], which IC50 is on record?
**A.** 0.186 µM

**Q.** Which IC50 does the source give for `C[C@@H]1CC[C@H](N(CC(=O)Nc2ccc3c(c2)C[C@@]2(C3)C(=O)Nc3ncccc32)C(=O)C(C)(C)C)CN1` (relative stereo) [Example 29, N-((3S*,6R*)-6-Methylpiperidin-3-yl)-N-(2-oxo-2-(((R)-2′-oxo-1,1′,2′,3-tetrahydrospiro[indene-2,3′-pyrrolo[2,3-b]pyridin]-5-yl)amino)ethyl)pivalamide] here?
**A.** 0.178 µM

**Q.** How did the IC50 turn out when `O=C(CN(C(=O)C12CC(C1)C2)[C@H]1CCCNC1)Nc1ccc2c(c1)C[C@@]1(C2)C(=O)Nc2ncccc21` [Example 4, N-(2-Oxo-2-(((R)-2′-oxo-1,1′,2′,3-tetrahydrospiro[indene-2,3′-pyrrolo [2,3-b]pyridin]-5-yl)amino)ethyl)-N—((S)-piperidin-3-yl)bicyclo[1.1.1]pentane-1-carboxamide] was run?
**A.** 0.251 µM

**Q.** How did the IC50 turn out when `CC1(C(=O)N(CC(=O)Nc2ccc3c(c2)C[C@@]2(C3)C(=O)Nc3ncccc32)[C@H]2CCCNC2)CCN(C(=O)c2ccccn2)CC1` [Example 17, 4-Methyl-N-(2-oxo-2-(((R)-2′-oxo-1,1′,2′,3-tetrahydrospiro[indene-2,3′-pyrrolo[2,3-b]pyridin]-5-yl)amino)ethyl)-1-picolinoyl-N—((S)-piperidin-3-yl)piperidine-4-carboxamide] was run?
**A.** 0.0186 µM

**Q.** With `O=C(CN(C(=O)C1(C(F)(F)F)CC1)[C@H]1CCCNC1)Nc1ccc2c(c1)C[C@@]1(C2)C(=O)Nc2ncccc21` [Example 7, N-(2-Oxo-2-(((R)-2′-oxo-1,1′,2′,3-tetrahydrospiro[indene-2,3′-pyrrolo[2,3-b]pyridin]-5-yl)amino)ethyl)-N—((S)-piperidin-3-yl)-1-(trifluoromethyl)cyclopropanecarboxamide] as the molecule, how does the IC50 read?
**A.** 0.955 µM

**Q.** Which IC50 does the source give for `COC(C)(C)C(=O)N(CC(=O)Nc1ccc2c(c1)C[C@@]1(C2)C(=O)Nc2ncccc21)[C@H]1CCCNC1` [Example 11, 2-Methoxy-2-methyl-N-(2-oxo-2-(((R)-2′-oxo-1,1′,2′,3-tetrahydrospiro[indene-2,3′-pyrrolo[2,3-b]pyridin]-5-yl)amino)ethyl)-N—((S)-piperidin-3-yl)propenamide] here?
**A.** 0.0851 µM

**Q.** Which IC50 does the source give for `CC(C)(C)C(=O)N(CC(=O)Nc1ccc2c(c1)C[C@@]1(C2)C(=O)Nc2ncccc21)[C@@H]1CCCNC1` [Example 3, N-(2-Oxo-2-(((R)-2′-oxo-1,1′,2′,3-tetrahydrospiro[indene-2,3′-pyrrolo[2,3-b]pyridin]-5-yl)amino)ethyl)-N—((R)-piperidin-3-yl)pivalamide] here?
**A.** 0.741 µM

**Q.** With `O=C(CN(C(=O)N1CCCC1)[C@H]1CCCNC1)Nc1ccc2c(c1)C[C@@]1(C2)C(=O)Nc2ncccc21` [Example 22, N-(2-Oxo-2-(((R)-2′-oxo-1,1′,2′,3-tetrahydrospiro[indene-2,3′-pyrrolo [2,3-b]pyridin]-5-yl)amino)ethyl)-N—((S)-piperidin-3-yl)pyrrolidine-1-carboxamide] as the molecule, how does the IC50 read?
**A.** 0.245 µM

**Q.** For `CC1(C(=O)N(CC(=O)Nc2ccc3c(c2)C[C@@]2(C3)C(=O)Nc3ncccc32)[C@H]2CCCNC2)CCNCC1` [Example 15, 4-Methyl-N-(2-oxo-2-(((R)-2′-oxo-1,1′,2′,3-tetrahydrospiro[indene-2,3′-pyrrolo[2,3-b]pyridin]-5-yl)amino)ethyl)-N—((S)-piperidin-3-yl)piperidine-4-carboxamide], which IC50 is on record?
**A.** 0.0501 µM

**Q.** Which IC50 does the source give for `CC1(C(=O)N(CC(=O)Nc2ccc3c(c2)C[C@@]2(C3)C(=O)Nc3ncccc32)[C@H]2CCCNC2)CCN(C(=O)N2CCCC2)CC1` [Example 21, 4-Methyl-N-(2-oxo-2-(((R)-2′-oxo-1,1′,2′,3-tetrahydrospiro[indene-2,3′-pyrrolo[2,3-b]pyridin]-5-yl)amino)ethyl)-N—((S)-piperidin-3-yl)-1-(pyrrolidine-1-carbonyl)piperidine-4-carboxamide] here?
**A.** 0.0275 µM

**Q.** With `O=C(CN(C(=O)C1(C(F)(F)F)CCC1)[C@H]1CCCNC1)Nc1ccc2c(c1)C[C@@]1(C2)C(=O)Nc2ncccc21` [Example 12, N-(2-Oxo-2-(((R)-2′-oxo-1,1′,2′,3-tetrahydrospiro[indene-2,3′-pyrrolo[2,3-b]pyridin]-5-yl)amino)ethyl)-N—((S)-piperidin-3-yl)-1-(trifluoromethyl)cyclobutanecarboxamide] as the molecule, how does the IC50 read?
**A.** 0.263 µM

**Q.** `CC(C)(C)C(=O)N(CC(=O)Nc1ccc2c(c1)C[C@@]1(C2)C(=O)Nc2ncccc21)C1CC2CNC1C2` (stereo partly drawn) [Example 30, N-(2-Azabicyclo[2.2.1]heptan-6-yl)-N-(2-oxo-2-(((R)-2′-oxo-1,1′,2′,3-tetrahydrospiro[indene-2,3′-pyrrolo[2,3-b]pyridin]-5-yl)amino)ethyl)pivalamide] was tested. Which IC50 did it give?
**A.** 3.02 µM

**Q.** Which IC50 does the source give for `CC(C)(F)C(=O)N(CC(=O)Nc1ccc2c(c1)C[C@@]1(C2)C(=O)Nc2ncccc21)[C@H]1CCCNC1` [Example 6, 2-Fluoro-2-methyl-N-[2-oxo-2-[[(3R)-2-oxospiro[1H-pyrrolo[2,3-b]pyridine-3,2′-indane]-5′-yl]amino]ethyl]-N-[(3S)-3-piperidyl]propanamide] here?
**A.** 8.32 µM

**Q.** How did the IC50 turn out when `CC(C)(C)C(=O)N(CC(=O)Nc1ccc2c(c1)C[C@@]1(C2)C(=O)Nc2ncccc21)[C@H]1CCCNC1` [Example 2, N-(2-Oxo-2-(((R)-2′-oxo-1,1′,2′,3-tetrahydrospiro[indene-2,3′-pyrrolo[2,3-b]pyridin]-5-yl)amino)ethyl)-N—((S)-piperidin-3-yl)pivalamide] was run?
**A.** 0.00302 µM

**Q.** `CC(=O)N1CCC(C)(C(=O)N(CC(=O)Nc2ccc3c(c2)C[C@@]2(C3)C(=O)Nc3ncccc32)[C@H]2CCCNC2)CC1` [Example 16, 1-Acetyl-4-methyl-N-(2-oxo-2-(((R)-2′-oxo-1,1′,2′,3-tetrahydrospiro[indene-2,3′-pyrrolo[2,3-b]pyridin]-5-yl)amino)ethyl)-N—((S)-piperidin-3-yl)piperidine-4-carboxamide] was tested. Which IC50 did it give?
**A.** 0.112 µM

**Q.** Which IC50 does the source give for `CCC1(C(=O)N(CC(=O)Nc2ccc3c(c2)C[C@@]2(C3)C(=O)Nc3ncccc32)[C@H]2CCCNC2)CCN(C(C)=O)CC1` [Example 19, 1-Acetyl-4-ethyl-N-(2-oxo-2-(((R)-2′-oxo-1,1′,2′,3-tetrahydrospiro[indene-2,3′-pyrrolo[2,3-b]pyridin]-5-yl)amino)ethyl)-N—((S)-piperidin-3-yl)piperidine-4-carboxamide] here?
**A.** 0.0141 µM

**Q.** Which IC50 does the source give for `CC(C)(C)C(=O)N(CC(=O)Nc1ccc2c(c1)CC1(C2)C(=O)Nc2ncccc21)C1CCCCNC1` (centres unmarked) [Example 25, N-(Azepan-3-yl)-N-(2-oxo-2-((2′-oxo-1,1′,2′,3-tetrahydrospiro[indene-2,3′-pyrrolo[2,3-b]pyridin]-5-yl)amino)ethyl)pivalamide] here?
**A.** 0.129 µM

— patent US20220023281A1, “HETEROCYCLIC SPIRO-COMPOUNDS AS AM2 RECEPTOR INHIBITORS” (THE UNIVERSITY OF SHEFFIELD, priority 2018, published 2022)
